In US7192953B2, “Antibacterial agents” (Vernalis (Oxford) Limited, priority 2002, dated 2007):
In brackets after ≈: the same amount, converted by molar mass.

Legend:
Format in all cases: cell-based
[1] = test system: M. catarrhalis; assay: MIC by agar plate dilution against clinical isolates of M. catarrhalis; details: 3 strains of M. catarrhalis (clinical isolates), 18 to 24 hr, 35° C; for MIC: Moraxella catarrhalis, read-out: MIC or MIC range, M. catarrhalis
Description: (§1) Minimal Inhibitory concentrations (MIC) of inhibitors against clinical isolates of S. pneumoniae, H. influenzae and M. catarrhalis obtained from the Public Health and Clinical Microbiology Laboratory, Addenbrooke's Hospital, Hills Road, Cambridge CB2 2QW, UK, were determined by a standard agar plate dilution method following recommended in British Society for Antimicrobial Chemotherapy Working Party. 1991. “A guide to sensitivity testing British Society for Antimicrobial Chemotherapy, London, United Kingdom”. Briefly Iso-Sensitest agar (pH 7.2: Oxoid, United Kingdom) was employed supplemented with 5% horse blood (Oxoid) and 20 μg of NAD (Sigma) per ml to support growth of fastidious bacteria. The inoculum used was approximately 10^4 colony forming units of each isolate contained in a volume of 1 μl. Plates were incubated 18 to 24 hr in air, or for fastidious bacteria an atmosphere enriched with 4–6% carbon dioxide at 35° C. The MIC was determined as the lowest concentration of an antimicrobial tested that inhibited growth of the inoculum, disregarding a single persisting colony or faint haze caused by the inoculation.
(§2) The compounds of the Examples were are antibacterially active in the above assays, The following table states the MICs or MIC ranges of the tested compounds against 6 strains of S. pneumoniae, 4 strains of H. influenzae and 3 strains of M. catarrhalis.

[2] = test system: H. influenzae; assay: MIC by agar plate dilution against clinical isolates of H. influenzae; details: 4 strains of H. influenzae (clinical isolates), 18 to 24 hr, 35° C; for MIC: Haemophilus influenzae, read-out: MIC or MIC range, H. Influenzae
Description: as §1, §2

[3] = test system: S. pneumoniae; assay: MIC by agar plate dilution against clinical isolates of S. pneumoniae; details: 6 strains of S. pneumoniae (clinical isolates), 18 to 24 hr, 35° C; for MIC: Streptococcus pneumoniae, read-out: MIC or MIC range, S. pneumoniae
Description: as §1, §2

Molecule | MIC or MIC range, M. catarrhalis [1] | MIC or MIC range, H. Influenzae [2] | MIC or MIC range, S. pneumoniae [3] | MIC [1] | MIC [2] | MIC [3]
CN(C(=O)N1CCCCN1C(=O)[C@H](CC1CCCC1)CN(O)C=O)c1ccccc1 [Example 21, 2-[(2R)-Cyclopentylmethyl-3-(formylhydroxyamino)-propionyl]-tetrahydropyridazine-1-Carboxylic acid methylphenylamide] | 0.125 µg/mL (≈ 0.3 µM) | 4 to 16 µg/mL | 1 to 4 µg/mL | – | – | –
CC(C)(C)OC(=O)N1CCCN1C(=O)[C@H](CC1CCCC1)CN(O)C=O [Example 23, 2-[(2R)-Cyclopentylmethyl-3-(formylhydroxyamino)-propionyl]-pyrazolidine-1-Carboxylic acid tert-butyl ester] | <0.125 µg/mL | 0.5 to 2 µg/mL | 8 to 16 µg/mL | – | – | –
CC(C)(C)OC(=O)N1CCCCN1C(=O)[C@H](CC1CCCC1)CN(O)C=O [Example 24, 2-[(2R)-Cyclopentylmethyl-3-(formylhydroxyamino)-propionyl]-tetrahydropyridazine-1-Carboxylic acid tert-butyl ester] | – | – | – | < 0.125 µg/mL | 1 to 4 µg/mL (≈ 2.61 to 10.4 µM) | 4 to 16 µg/mL (≈ 10.4 to 41.7 µM)
COCC(=O)N1CCCN1C(=O)[C@H](CC1CCCC1)CN(O)C=O [Example 26, N-{(2R)-Cyclopentylmethyl-3-[2-(2-methoxyacetyl)-pyrazolidin-1-yl]-3-oxo-propyl}N-hydroxyformamide] | – | – | – | 0.125 µg/mL (≈ 0.366 µM) | 1 to 8 µg/mL (≈ 2.93 to 23.4 µM) | 8 µg/mL (≈ 23.4 µM)
O=CN(O)C[C@@H](CC1CCCC1)C(=O)N1CCCN1C(=O)c1ccccc1 [Example 27, N-{(2R)-Cyclopentylmethyl-3-[2-benzoyl-pyrazolidin-1-yl]-3-oxo-propyl}-N-hydroxyformamide] | – | – | – | 0.06 µg/mL (≈ 0.161 µM) | 2 to 16 µg/mL (≈ 5.36 to 42.8 µM) | 16 µg/mL (≈ 42.8 µM)
O=CN(O)C[C@@H](CC1CCCC1)C(=O)N1CCCN1C(=O)c1ccc(C(F)(F)F)cc1 [Example 28, N-{(2R)-Cyclopentylmethyl-3-[2-(4-trifluoromethylbenzoyl)-pyrazolidin-1-yl]-3-oxo-propyl}-N-hydroxyformamide] | – | – | – | 0.06 µg/mL (≈ 0.136 µM) | 16 µg/mL (≈ 36.2 µM) | 0.5 to 4 µg/mL (≈ 1.13 to 9.06 µM)
O=CN(O)C[C@@H](CC1CCCC1)C(=O)N1CCCN1C(=O)Cc1ccccc1 [Example 29, N-{(2R)-Cyclopentylmethyl-3-[2-phenylacetyl-pyrazolidin-1-yl]-3-oxo-propyl}-N-hydroxyformamide] | – | – | – | 0.06 µg/mL (≈ 0.155 µM) | 2 to 16 µg/mL (≈ 5.16 to 41.3 µM) | 4 to 8 µg/mL (≈ 10.3 to 20.6 µM)
O=CN(O)C[C@@H](CC1CCCC1)C(=O)N1CCCN1C(=O)C1CCCCC1 [Example 31, N-{(2R)-Cyclopentylmethyl-3-[2-Cyclohexanecarbonyl-pyrazolidin-1-yl]-3-oxo-propyl}-N-hydroxyformamide] | – | – | – | 0.06 µg/mL (≈ 0.158 µM) | 4 to 16 µg/mL (≈ 10.5 to 42.2 µM) | 8 µg/mL (≈ 21.1 µM)
O=CN(O)C[C@@H](CC1CCCC1)C(=O)N1CCCN1C(=O)c1ccc(N2CCOCC2)nc1 [Example 32, N-{(2R)-Cyclopentylmethyl-3-[2-(6-morpholin-4-yl-pyridine-3-Carbonyl)-pyrazolidin-1-yl]-3-oxo-propyl}-N-hydroxyformamide] | – | – | – | 0.25 µg/mL (≈ 0.544 µM) | 16 µg/mL (≈ 34.8 µM) | 1 to 8 µg/mL (≈ 2.18 to 17.4 µM)
COc1ccc(C(=O)N2CCCN2C(=O)[C@H](CC2CCCC2)CN(O)C=O)cc1 [Example 33, N-{(2R)-Cyclopentylmethyl-3-[2-(4-methoxybenzoyl)-pyrazolidin-1-yl]-3-oxo-propyl}-N-hydroxyformamide] | – | – | – | 0.06 µg/mL (≈ 0.149 µM) | 16 to 32 µg/mL (≈ 39.7 to 79.3 µM) | 4 to 16 µg/mL (≈ 9.91 to 39.7 µM)
O=CN(O)C[C@@H](CC1CCCC1)C(=O)N1CCCN1C(=O)c1ccc2c(c1)OCO2 [Example 34, N-{(2R)-Cyclopentylmethyl-3-[2-(benzo[1,3]-dioxole-5-Carbonyl)-pyrazolidin-1-yl]-3-oxo-propyl}N-hydroxyformamide] | – | – | – | 0.125 µg/mL (≈ 0.299 µM) | 4 to 16 µg/mL (≈ 9.58 to 38.3 µM) | 8 to 16 µg/mL (≈ 19.2 to 38.3 µM)
O=CN(O)C[C@@H](CC1CCCC1)C(=O)N1CCCN1C(=O)c1ccc(F)cc1 [Example 35, N-{(2R)-Cyclopentylmethyl-3-[2-(4-fluorobenzoyl)-pyrazolidin-1-yl]-3-oxo-propyl}-N-hydroxyformamide] | – | – | – | 0.125 µg/mL (≈ 0.319 µM) | 4 to 8 µg/mL (≈ 10.2 to 20.4 µM) | 16 µg/mL (≈ 40.9 µM)
O=CN(O)C[C@@H](CC1CCCC1)C(=O)N1CCCN1C(=O)c1cccnc1 [Example 36, N-{(2R)-Cyclopentylmethyl-3-[2-(pyridine-3-Carbonyl)-pyrazolidin-1-yl]-3-oxo-propyl}N-hydroxyformamide] | – | – | – | 0.125 µg/mL (≈ 0.334 µM) | 2 to 32 µg/mL (≈ 5.34 to 85.5 µM) | 8 µg/mL (≈ 21.4 µM)
COc1ccccc1NC(=O)N1CCCN1C(=O)[C@H](CC1CCCC1)CN(O)C=O [Example 38, 2-[(2R)-Cyclopentylmethyl-3-(formylhydroxyamino)-propionyl]-pyrazolidine-1-Carboxylic acid (2-methoxyphenyl)amide] | 0.25 µg/mL (≈ 0.597 µM) | 1 to 2 µg/mL | 8 to 16 µg/mL | – | – | –
O=CN(O)C[C@@H](CC1CCCC1)C(=O)N1CCCN1C(=O)Nc1ccccc1 [Example 39, 2-[(2R)-Cyclopentylmethyl-3-(formylhydroxyamino)-propionyl]-pyrazolidine-1-Carboxylic acid phenylamide] | – | – | – | < 0.125 µg/mL | 0.125 to 2 µg/mL (≈ 0.322 to 5.15 µM) | 4 to 16 µg/mL (≈ 10.3 to 41.2 µM)
O=CN(O)C[C@@H](CC1CCCC1)C(=O)N1CCCN1C(=O)Nc1ccc(F)cc1 [Example 40] | – | – | – | < 0.125 µg/mL | 0.125 to 2 µg/mL (≈ 0.308 to 4.92 µM) | 8 to 16 µg/mL (≈ 19.7 to 39.4 µM)
COc1cccc(NC(=O)N2CCCN2C(=O)[C@H](CC2CCCC2)CN(O)C=O)c1 [Example 41, 2-[(2R)-Cyclopentylmethyl-3-(formylhydroxyamino)-propionyl]-pyrazolidine-1-Carboxylic acid (3-methoxyphenyl)amide] | – | – | – | < 0.125 µg/mL | 0.125 to 2 µg/mL (≈ 0.299 to 4.78 µM) | 4 to 8 µg/mL (≈ 9.56 to 19.1 µM)
O=C(C[C@@H](CC1CCCC1)C(=O)N1CCCCN1C(=O)c1ccco1)NO [Example 44, (3R)-Cyclopentylmethyl-4-[2-(furan-2-Carbonyl)-tetrahydropyridazin-1-yl]-N-hydroxy-4-oxo-butyramide] | 0.6 µg/mL (≈ 1.59 µM) | 0.06 to 0.125 µg/mL | 2 to 4 µg/mL | – | – | –
(2R)-Cyclopentylmethyl-3-[2-(furan-2-Carbonyl)-pyrazolidin-1-yl]-3-oxo-propyl}formamide [Example 25] | <0.125 µg/mL | <0.125 to 1 µg/mL | 4 to 8 µg/mL | – | – | –
(2R)-Cyclopentylmethyl-3-[2-(furan-2-Carbonyl)-tetrahydropyridazin-1-yl]-3-oxo-propyl}formamide [Example 1] | <0.125 µg/mL | <0.125 to 0.25 µg/mL | 0.5 to 2 µg/mL | – | – | –
